{"source": "patent US20260297542A1", "about": "“HERBICIDE RESISTANT PLANTS” (SYNGENTA CROP PROTECTION AG, priority 2023, published 2026)", "assay_in_all_cases": "E. coli hemG growth inhibition by herbicide, AtPPO1 variant", "assay_type_in_all_cases": "cell-based", "conditions_in_all_cases": "read-out: percentage growth inhibition", "key": {"[1]": {"target": "T1, AtPPO1 G510N (Arabidopsis thaliana, UniProt P55826, G510N)", "T1 construct": "expressed in transfected cells; host or cells: E. coli BL21(DE3) hemG, pET24a plasmid", "T1 sequence (P55826 35-537 G510N)": "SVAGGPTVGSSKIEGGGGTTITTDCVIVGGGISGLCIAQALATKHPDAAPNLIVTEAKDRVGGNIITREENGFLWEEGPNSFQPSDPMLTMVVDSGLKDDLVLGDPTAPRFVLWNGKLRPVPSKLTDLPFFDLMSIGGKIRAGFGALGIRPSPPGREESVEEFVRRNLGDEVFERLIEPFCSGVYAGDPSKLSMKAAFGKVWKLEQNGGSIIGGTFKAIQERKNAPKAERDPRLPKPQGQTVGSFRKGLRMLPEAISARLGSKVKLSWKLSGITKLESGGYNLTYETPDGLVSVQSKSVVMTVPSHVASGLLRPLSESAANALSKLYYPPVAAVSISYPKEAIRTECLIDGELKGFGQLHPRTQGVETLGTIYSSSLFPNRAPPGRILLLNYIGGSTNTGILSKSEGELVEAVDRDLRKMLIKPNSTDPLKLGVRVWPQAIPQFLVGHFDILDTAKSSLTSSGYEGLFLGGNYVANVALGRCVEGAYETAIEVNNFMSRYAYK", "procedure,_shortened": "(§1)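 Read-out is OD600 at 24 h post inoculation, converted to percent growth inhibition relative to DMSO. The hemG-deleted BL21(DE3) host relied on the plasmid-borne AtPPO1 variant, induced with 0.1 mM IPTG, with 6.25 ppm herbicide 0 or E or 0.78 ppm herbicide B present at 37° C.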"}, "[2]": {"target": "T2, AtPPO1 V365L (Arabidopsis thaliana, UniProt P55826, V365L)", "T2 construct": "expressed in transfected cells; host or cells: E. coli BL21(DE3) hemG (pET24a, T7 promoter)", "T2 sequence (P55826 35-537 V365L)": "T1 sequence (P55826 35-537 G510N) with V331L, N476G", "procedure,_shortened": "as §1"}, "[3]": {"target": "T3, AtPPO1 C516Q (Arabidopsis thaliana, UniProt P55826, C516Q)", "T3 construct": "expressed in transfected cells; host or cells: E. coli BL21(DE3) hemG, pET24a plasmid", "T3 sequence (P55826 35-537 C516Q)": "T1 sequence (P55826 35-537 G510N) with N476G, C482Q", "procedure,_shortened": "as §1"}, "[4]": {"target": "T4, AtPPO1 Q272T (Arabidopsis thaliana, UniProt P55826, Q272T)", "T4 construct": "expressed in transfected cells; host or cells: E. coli BL21(DE3) hemG (hemG replaced by CmR), pET24a plasmid", "T4 sequence (P55826 35-537 Q272T)": "T1 sequence (P55826 35-537 G510N) with Q238T, N476G", "procedure,_shortened": "as §1"}}, "note": "Numbering of substitutions follows the chain as printed.", "data": [{"smiles": "C#CCN1C(=O)C(F)(F)Oc2cc(F)c(-n3c(=O)n(C)c(=S)n(C)c3=O)cc21", "note": "[Herbicide B, trifludimoxazin]", "values": [{"measurement": "inhibition at 0.78 ppm", "setting": "[1]", "result": 24, "unit": "%"}, {"measurement": "inhibition at 0.78 ppm", "setting": "[2]", "result": 11, "unit": "%"}, {"measurement": "inhibition at 0.78 ppm", "setting": "[3]", "result": 18, "unit": "%"}, {"measurement": "inhibition at 0.78 ppm", "setting": "[4]", "result": 28, "unit": "%"}]}, {"smiles": "CCOC(=O)[C@]1(C)CC(c2cc(-n3c(=O)n(C)c(=S)n(C)c3=O)c(F)cc2Cl)=NO1", "note": "[Herbicide D, ethyl (5S)-3-[2-chloro-5-(3,5-dimethyl-2,6-dioxo-4-thioxo-1,3,5-triazinan-1-yl)-4-fluoro-phenyl]-5-methyl-4H-isoxazole-5-carboxylate]", "values": [{"measurement": "inhibition at 6.25 ppm", "setting": "[1]", "result": 31, "unit": "%"}, {"measurement": "inhibition at 6.25 ppm", "setting": "[2]", "result": 55, "unit": "%"}, {"measurement": "inhibition at 6.25 ppm", "setting": "[3]", "result": 28, "unit": "%"}, {"measurement": "inhibition at 6.25 ppm", "setting": "[4]", "result": 23, "unit": "%"}]}, {"smiles": "CC(C)N(C)S(=O)(=O)NC(=O)c1cc(-n2c(=O)cc(C(F)(F)F)n(C)c2=O)c(F)cc1Cl", "note": "[Herbicide E, saflufenacil]", "values": [{"measurement": "inhibition at 6.25 ppm", "setting": "[1]", "result": 70, "unit": "%"}, {"measurement": "inhibition at 6.25 ppm", "setting": "[2]", "result": 27, "unit": "%"}, {"measurement": "inhibition at 6.25 ppm", "setting": "[3]", "result": 51, "unit": "%"}, {"measurement": "inhibition at 6.25 ppm", "setting": "[4]", "result": 64, "unit": "%"}]}]}
